Measured values: patent publication EP0710105B1, “SYNERGISTIC ANTHELMINTIC COMPOSITIONS AGAINST FASCIOLA HEPATICA AND OTHER FASCIOLA SPECIES” (THE AUSTRALIAN NATIONAL UNIVERSITY, priority 1993, dated 1994)
Where “and” joins values, the source holds several entries; their conditions need not be identical. Equal entries are not always repeated.

Experiments:
Format in all cases: in vivo
[1] = system: Fasciola hepatica aged 6 weeks resistant to salicylanilides (closantel) and benzimidazole carbamates (luxabendazole); assay: Controlled test in sheep: efficacy against immature F. hepatica, multiple resistant Armidale-Morven strain
Description: (§1) In six controlled tests, a total of 212 merino wethers aged 1 to 2.5 years were used. The sheep were obtained from fluke free areas in North-West New South Wales.
(§2) Some isolates used in the trials were obtained from existing laboratory populations but the majority of the strains were isolated from the field, their resistance status was defined in several controlled tests and the isolates were then maintained in the laboratory. A laboratory strain from Compton U.K. (Compton Paddock Laboratories, Newbury, Berks. UK) was included in the tests. […] The other isolates originated from properties where salicylanilide compounds were used with variable frequency for the control of fasciolosis or haemonchosis, and also various benzimidazole carbamates were used for the control of gastrointestinal nematodes. Those isolates were further selected in the laboratory with benzimidazole compounds, such as luxabendazole (Hoechst Pty.Ltd., Frankfurt am Main, Germany) or by 8 weekly dosing a group of sheep with triclabendazole (Fasinex, CIBA-GEIGY Aust.Ltd., Pendle Hill, NSW Australia) in a 2 acre paddock with natural snail habitats contaminated with Fasciola hepatica .
(§3) In the trials, F.hepatica populations were isolated from properties and passaged through suitable intermediate host snails, Lymnaea tomentosa, L.viridis and L.columella in the laboratory. Sheep were then inoculated with the metacercariae of the selected strains by intraruminal injection of metacercariae suspended in 0.4% carboxy-methylcellulose solution. The sheep were divided into groups of 4 or 5. Standardised control tests (Boray, 1969), were carried out to determine the efficacy of various drugs and combinations against immature F.hepatica isolates.
(§4) Percentage reductions of fluke burdens for the sum of the individual drugs and for the combinations were estimated and their 95 % confidence limits were determined.
(§5) The drugs tested were triclabendazole (Fasinex, CIBA-GEIGY Australia Ltd.), clorsulon (Curatrem, MSD AGVET Rahway, New Jersey, USA), luxabendazole (Hoechst Pty.Ltd., Frankfurt am Main, Germany), closantel (Seponver, SmithKline Animal Health Australia Ltd.), closantel injectible (Flukiver, Janssen Pharma, Belgium), clorsulon injectible (Ivomec F, MSD Agvet,Rahway, New Jersey, USA) and nitroxynil injectible (Trodax, Cyanamid-Webster Australia Ltd.) The commercial formulations were used and for uniform pharmacokinetic distribution they were injected intraruminally (for those drugs it is equal to oral dosing) at the selected dose rate according to the body weight of the sheep 6 weeks after inoculation. In the trials with the injectible nitroxynil the drugs were applied as a subcutaneous injection. For each trial a group of sheep were left untreated as controls. The sheep were slaughtered 16 weeks after inoculation and the flukes were recovered from the livers and counted. […] The dose rates were selected based on many preliminary studies on the efficacy against F.hepatica aged 6 weeks. […] According to accepted standards (Boray, 1969) high efficacy is achieved when the drug reduces the fluke burden by 90% or more.

[2] = system: Fasciola hepatica aged 6 weeks (Susceptible to the drugs used); assay: Controlled test in sheep: efficacy against immature F. hepatica, susceptible strain
Description: as §1, §2, §3, §4, §5

[3] = system: Fasciola hepatica aged 6 weeks resistant to triclabendazole; assay: Controlled test in sheep: efficacy against immature F. hepatica, triclabendazole-resistant strain
Description: as §1, §2, §3, §4, §5

[4] = system: Fasciola hepatica aged 6 weeks resistant to salicylanilides (closantel), susceptible to the other drug families used; assay: Controlled test in sheep: efficacy against immature F. hepatica, salicylanilide-resistant strain; conditions: for efficacy: given alone at low dose rates
Description: as §1, §2, §3, §4, §5

[5] = system: Fasciola hepatica aged 6 weeks, resistant to salicylanilides; assay: Controlled test in sheep, subcutaneous injection: efficacy against immature F. hepatica, Hampton II strain
Description: as §1, §2, §3, §4, §5

[6] = 2.0 mg/kg intraruminal, 2 mg/kg
[7] = 7.0 mg/kg subcutaneous injection
[8] = 5.0 mg/kg intraruminal, 5 mg/kg
[9] = 7.5 mg/kg intraruminal, 7.5 mg/kg
[10] = 5.0 mg/kg intraruminal, listed as luxabendazole, 5 mg/kg
[11] = 3.0 mg/kg subcutaneous injection

For `CSc1nc2cc(Cl)c(Oc3cccc(Cl)c3Cl)cc2[nH]1` [Triclabendazole, triclabendazole], the “Mean No. of Fluke (SD)” value ([1]; 2.0 mg/kg intraruminal) was 25.5 (13.5), the “Percent Reduction of Fluke Burden (95% Confidence limits)” value ([1]; 2.0 mg/kg intraruminal) was 70% and the “Percent Reduction of Fluke Burden (95% Confidence limits)” value [1, 6] was 70.6 (53, 83) %. The “Mean No. of Fluke (SD)” value ([2]; 2.0 mg/kg intraruminal 6 weeks after inoculation, slaughter at 16 weeks) was 9.2 (8.3), the “Percent Reduction of Fluke Burden (95% Confidence limits)” value ([2]; 2.0 mg/kg intraruminal, vs untreated controls, 2 mg/kg) was 78.9 (58, 91) % and the “Percent Reduction of Fluke Burden (95% Confidence limits)” value ([2]; 2.0 mg/kg intraruminal, vs untreated controls, listed as triclabendazole, 2 mg/kg) was 79%. For the same compound, the “Mean No. of Fluke (SD)” value ([3]; 2.0 mg/kg intraruminal) was 55.0 (51.1), the “Percent Reduction of Fluke Burden (95% Confidence limits)” value [3, 6] was 31.4 (2, 91) % and the “Percent Reduction of Fluke Burden (95% Confidence limits)” value ([3]; 2.0 mg/kg intraruminal, listed as triclabendazole, 2 mg/kg) was 30%.

For `COC(=O)Nc1nc2ccc(Sc3ccccc3)cc2[nH]1` [Fenbendazole, fenbendazole], the “Mean No. of Fluke (SD)” value ([4]; 5.0 mg/kg intraruminal) was 71.0 (8.0), the “Percent Reduction of Fluke Burden (95% Confidence limits)” value ([4]; 5.0 mg/kg intraruminal) was 3.6% and the efficacy [4] was “very low efficacy”.

With `CCCSc1ccc2nc(NC(=O)OC)[nH]c2c1` [Albendazole, albendazole] the “Mean No. of Fluke (SD)” value ([4]; 5.0 mg/kg intraruminal) was 52.7 (6.9), the “Percent Reduction of Fluke Burden (95% Confidence limits)” value ([4]; 5.0 mg/kg intraruminal) was 28.4 (6, 72) % and the efficacy [4] was “very low efficacy”.

In the case of `N#Cc1cc(I)c(O)c([N+](=O)[O-])c1` [Nitroxynil, nitroxynil], the “Mean No. of Fluke (SD)” value [5, 7] is reported as 26.6 (6.6) and the “Percent Reduction of Fluke Burden (95% Confidence limits)” value [5, 7] is reported as 8.3%.

`Nc1cc(C(Cl)=C(Cl)Cl)c(S(N)(=O)=O)cc1S(N)(=O)=O` [Clorsulon, clorsulon] was tested, and the “Mean No. of Fluke (SD)” value ([1]; 5.0 mg/kg intraruminal) was 41.0 (3.7), the “Percent Reduction of Fluke Burden (95% Confidence limits)” value [1, 8] was 52.7 (33,72) % and the “Percent Reduction of Fluke Burden (95% Confidence limits)” value ([1]; 5.0 mg/kg intraruminal, listed as clorsulon, 5 mg/kg) was 52%. The “Mean No. of Fluke (SD)” value ([5]; 2.0 mg/kg subcutaneous injection) was 18.4 (6.6), the “Percent Reduction of Fluke Burden (95% Confidence limits)” value ([5]; 2.0 mg/kg subcutaneous injection, 2 mg/kg) was 36.6 (9.76) % and the “Percent Reduction of Fluke Burden (95% Confidence limits)” value ([5]; 2.0 mg/kg subcutaneous injection, listed as clorsulon, 2 mg/kg) was 36.5%. For the same compound, the “Mean No. of Fluke (SD)” value ([2]; 3.0 mg/kg intraruminal) was 32.5 (4.4), the “Percent Reduction of Fluke Burden (95% Confidence limits)” value ([2]; 3.0 mg/kg intraruminal) was 25.9 (6, 67) % and the “Mean No. of Fluke (SD)” value ([2]; 5.0 mg/kg intraruminal) was 30.0 (11.6). For the same compound, the “Percent Reduction of Fluke Burden (95% Confidence limits)” value ([2]; 5.0 mg/kg intraruminal) was 31.6 (9, 67) %, the “Mean No. of Fluke (SD)” value ([3]; 3.0 mg/kg intraruminal) was 55.7 (42.9) and the “Percent Reduction of Fluke Burden (95% Confidence limits)” value ([3]; 3.0 mg/kg intraruminal, 3 mg/kg) was 30% and 30.5 (2, 91) %. The “Mean No. of Fluke (SD)” value ([3]; 5.0 mg/kg intraruminal) was 45.0 (26.3), the “Percent Reduction of Fluke Burden (95% Confidence limits)” value [3, 8] was 43% and 43.9 (7, 89) % and the “Mean No. of Fluke (SD)” value ([4]; 3.0 mg/kg intraruminal) was 57.5 (19.6). The “Percent Reduction of Fluke Burden (95% Confidence limits)” value ([4]; 3.0 mg/kg intraruminal) was 21.9 (3, 74) % and the efficacy [4] was “very low efficacy”.

For `COC(=O)Nc1nc2ccc([S+]([O-])c3ccccc3)cc2[nH]1` (centres unmarked) [Oxfendazole, oxfendazole], the “Mean No. of Fluke (SD)” value ([4]; 5.0 mg/kg intraruminal) was 74.5 (14.8) and the efficacy [4] was “very low efficacy”.

In the case of `COC(=O)Nc1nc2cc(OS(=O)(=O)c3ccc(F)cc3)ccc2[nH]1` [Luxabendazole, luxabendazole], the “Mean No. of Fluke (SD)” value ([1]; 7.5 mg/kg intraruminal) is reported as 89.0 (22.6), the “Percent Reduction of Fluke Burden (95% Confidence limits)” value ([1]; 7.5 mg/kg intraruminal) is reported as 0.0% and the “Percent Reduction of Fluke Burden (95% Confidence limits)” value [1, 9] is reported as “inefficient”. For the same compound, the “Mean No. of Fluke (SD)” value ([2]; 5.0 mg/kg intraruminal) was 32.0 (9.5), the “Percent Reduction of Fluke Burden (95% Confidence limits)” value [2, 8] was 27.0 (6, 67) % and the “Percent Reduction of Fluke Burden (95% Confidence limits)” value [2, 10] was 26%. For the same compound, the “Mean No. of Fluke (SD)” value ([3]; 5.0 mg/kg intraruminal) was 62.7 (61.3), the “Percent Reduction of Fluke Burden (95% Confidence limits)” value [3, 8] was 21.7 (1, 95) % and the “Percent Reduction of Fluke Burden (95% Confidence limits)” value [3, 10] was 21%. The “Mean No. of Fluke (SD)” value ([4]; 5.0 mg/kg intraruminal) was 51.7 (25.3) and the efficacy [4] was “very low efficacy”.

With `Cc1cc(C(C#N)c2ccc(Cl)cc2)c(Cl)cc1NC(=O)c1cc(I)cc(I)c1O` (centres unmarked) [Closantel, closantel] the “Mean No. of Fluke (SD)” value ([1]; 7.5 mg/kg intraruminal) was 118 (113.3), the “Percent Reduction of Fluke Burden (95% Confidence limits)” value ([1]; 7.5 mg/kg intraruminal) was 0.0% and the “Percent Reduction of Fluke Burden (95% Confidence limits)” value [1, 9] was “inefficient”. The “Mean No. of Fluke (SD)” value [5, 11] was 24.4 (14.4), the “Percent Reduction of Fluke Burden (95% Confidence limits)” value [5, 11] was 15.9% and the “Mean No. of Fluke (SD)” value ([4]; 5.0 mg/kg intraruminal) was 62.0 (17.1). For the same compound, the “Mean No. of Fluke (SD)” value ([4]; 7.5 mg/kg intraruminal) was 48.2 (38 6), the “Percent Reduction of Fluke Burden (95% Confidence limits)” value ([4]; 7.5 mg/kg intraruminal) was 34.5 (10, 72) % and the efficacy [4] was “very low efficacy”.
